Drawing on US20070117770A1, “Human ribosomal DNA (rDNA) and ribosomal RNA (rRNA) nucleic acids and uses thereof” (Cylene Pharmaceuticals, Inc., priority 2005, published 2007), this text covers remaining activity for two compounds.

Holding throughout (assay): Protein kinase inhibition assay
Common to all, as to type: biochemical

For one test, the target named is EGFR(h) (Homo sapiens, UniProt P00533). As to conditions: read-out: percent residual activity of EGFR(h). The protocol:
(§1) Certain compounds were tested for activity in protein kinase inhibition assays. All substrates were dissolved and diluted to working stocks in de-ionized water, apart from histone H1 (10× working stock in 20 mM MOPS pH 7.0), PDKtide (10× working stock in 50 mM Tris pH 7.0) ATF2 (which is typically stored at a 20× working stock in 50 mM Tris pH 7.5, 150 mM NaCl, 0.1 mM EGTA, 0.03% Brij-35, 50% glycerol, 1 mM benzamidine, 0.2 mM PMSF and 0.1% R-mercaptoethanol), KKLNRTLSFAEPG (SEQ ID NO:203) and RRRLSFAEPG (SEQ ID NO:204) (50 mM HEPES pH 7.4) and GGEEEEYFELVKKKK (SEQ ID NO:205) (20 mM MOPS pH 7.0). All kinases were pre-diluted to a 10× working concentration prior to addition into the assay. The composition of the dilution buffer for each kinase is detailed below.
(§2) In a final reaction volume of 25 μl, EGFR (h) (5-10 mU) is incubated with 8 mM MOPS pH 7.0, 0.2 mM EDTA, 10 mM MnCl2, 0.1 mg/ml poly(Glu, Tyr) 4:1, 10 mM MgAcetate and [gamma-33P-ATP] (specific activity approx. 500 cpm/pmol, concentration as required). The reaction is initiated by the addition of the MgATP mix. After incubation for 40 minutes at room temperature, the reaction is stopped by the addition of 5 μl of a 3% phosphoric acid solution. 10 μl of the reaction is then spotted onto a Filtermat A and washed three times for 5 minutes in 75 mM phosphoric acid and once in methanol prior to drying and scintillation counting.

The target of the next test is SAPK2b(h) (Homo sapiens, UniProt Q15759). Particulars: read-out: percent residual activity of SAPK2b(h). The protocol: as §1
In a final reaction volume of 25 μl, SAPK2b (h) (5-10 mU) is incubated with 25 mM Tris pH 7.5, 0.02 mM EGTA, 0.33 mg/ml myelin basic protein, 10 mM MgAcetate and [gamma-33P-ATP] (specific activity approx. 500 cpm/pmol, concentration as required). The reaction is initiated by the addition of the MgATP mix. After incubation for 40 minutes at room temperature, the reaction is stopped by the addition of 5 μl of a 3% phosphoric acid solution. 10 μl of the reaction is then spotted onto a P30 filtermat and washed three times for 5 minutes in 75 mM phosphoric acid and once in methanol prior to drying and scintillation counting.

In another test the target is FGFR1(h) (Homo sapiens, UniProt P11362). As to conditions: read-out: percent residual activity of FGFR1(h). As to the method:
as §1
as §2, with “FGFR1” for “EGFR”, “250 μM KKKSPGEYVNIEFG (SEQ ID NO:207),” for “10 mM MnCl2, 0.1 mg/ml poly(Glu, Tyr) 4:1,”, “[y-33P-ATP]” for “[gamma-33P-ATP]”, “MGATP” for “MgATP”, “P30 filtermat” for “Filtermat A”

The next test addresses GSK3α(h) (Homo sapiens, UniProt P49840). As to conditions: read-out: percent residual activity of GSK3α(h). As to the method: as §1
In a final reaction volume of 25 μl, GSK3α (h) (5-10 mU) is incubated with 8 mM MOPS pH 7.0, 0.2 mM EDTA, 20 μM […](p)EDEEE (SEQ ID NO:216) (phospho GS2 peptide), 10 mM MgAcetate and [gamma-33P-ATP] (specific activity approx. 500 cpm/pmol, concentration as required). The reaction is initiated by the addition of the MgATP mix. After incubation for 40 minutes at room temperature, the reaction is stopped by the addition of 5 μl of a 3% phosphoric acid solution. […]

A further test addresses Ret(h) (Homo sapiens, UniProt P07949). Particulars: read-out: percent residual activity of Ret(h). The protocol:
as §1
as §2, with “Ret” for “EGFR”, “250 μM KKKSPGEYVNIEFG (SEQ ID NO:207),” for “10 mM MnCl2, 0.1 mg/ml poly(Glu, Tyr) 4:1,”, “P30 filtermat” for “Filtermat A”

The target in the next test is Flt3(D835Y)(h) (Homo sapiens, UniProt P36888, D835Y). As to conditions: read-out: percent residual activity of Flt3(D835Y)(h). As to the method:
as §1
as §2, with “Flt3 (D835Y)” for “EGFR”, “50 μM EAIYAAPFAKKK (SEQ ID NO:206),” for “10 mM MnCl2, 0.1 mg/ml poly(Glu, Tyr) 4:1,”, “P30 filtermat” for “Filtermat A”

Chain of SAPK2b(h) (Q15759 whole entry): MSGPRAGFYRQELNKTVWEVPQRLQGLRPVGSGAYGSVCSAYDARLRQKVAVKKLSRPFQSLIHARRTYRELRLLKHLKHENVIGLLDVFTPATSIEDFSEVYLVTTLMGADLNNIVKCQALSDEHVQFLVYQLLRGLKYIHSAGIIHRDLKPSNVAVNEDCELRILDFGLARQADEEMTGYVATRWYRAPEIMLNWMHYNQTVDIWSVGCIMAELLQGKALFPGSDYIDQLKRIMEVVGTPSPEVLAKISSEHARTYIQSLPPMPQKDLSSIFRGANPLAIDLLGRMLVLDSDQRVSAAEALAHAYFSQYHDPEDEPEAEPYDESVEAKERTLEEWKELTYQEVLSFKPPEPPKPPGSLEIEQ
Chain of EGFR(h) (P00533 25-1210): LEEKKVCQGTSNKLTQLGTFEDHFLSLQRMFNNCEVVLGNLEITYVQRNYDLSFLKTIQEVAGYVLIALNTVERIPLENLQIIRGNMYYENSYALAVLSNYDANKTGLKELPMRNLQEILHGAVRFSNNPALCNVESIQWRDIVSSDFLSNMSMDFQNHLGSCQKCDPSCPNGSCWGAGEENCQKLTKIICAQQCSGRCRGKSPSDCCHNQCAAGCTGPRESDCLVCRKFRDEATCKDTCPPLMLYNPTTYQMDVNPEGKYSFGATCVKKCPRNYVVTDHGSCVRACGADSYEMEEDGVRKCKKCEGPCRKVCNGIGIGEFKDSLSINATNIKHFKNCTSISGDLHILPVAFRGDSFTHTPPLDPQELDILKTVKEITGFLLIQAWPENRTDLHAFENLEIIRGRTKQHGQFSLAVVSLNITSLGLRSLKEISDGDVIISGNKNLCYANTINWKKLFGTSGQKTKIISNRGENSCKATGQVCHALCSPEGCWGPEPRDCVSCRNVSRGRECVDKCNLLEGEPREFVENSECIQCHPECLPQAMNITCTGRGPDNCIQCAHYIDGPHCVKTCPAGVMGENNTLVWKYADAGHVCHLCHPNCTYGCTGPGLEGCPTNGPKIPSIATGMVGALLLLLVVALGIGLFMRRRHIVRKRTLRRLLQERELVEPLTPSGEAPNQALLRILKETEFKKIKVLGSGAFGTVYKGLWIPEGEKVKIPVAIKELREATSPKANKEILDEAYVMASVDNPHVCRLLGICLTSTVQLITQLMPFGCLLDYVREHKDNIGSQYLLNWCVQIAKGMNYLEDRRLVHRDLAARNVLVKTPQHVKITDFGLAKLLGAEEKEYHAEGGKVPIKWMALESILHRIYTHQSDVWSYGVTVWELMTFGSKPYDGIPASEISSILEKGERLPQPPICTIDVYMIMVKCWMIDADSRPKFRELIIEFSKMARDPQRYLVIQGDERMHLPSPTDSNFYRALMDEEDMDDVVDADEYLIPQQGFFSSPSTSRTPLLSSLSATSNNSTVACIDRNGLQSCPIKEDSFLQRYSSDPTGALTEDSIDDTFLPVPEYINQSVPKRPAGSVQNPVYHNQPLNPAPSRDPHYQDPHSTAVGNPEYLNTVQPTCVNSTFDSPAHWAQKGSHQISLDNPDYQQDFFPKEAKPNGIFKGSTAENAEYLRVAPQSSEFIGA
Chain of FGFR1(h) (P11362 22-822): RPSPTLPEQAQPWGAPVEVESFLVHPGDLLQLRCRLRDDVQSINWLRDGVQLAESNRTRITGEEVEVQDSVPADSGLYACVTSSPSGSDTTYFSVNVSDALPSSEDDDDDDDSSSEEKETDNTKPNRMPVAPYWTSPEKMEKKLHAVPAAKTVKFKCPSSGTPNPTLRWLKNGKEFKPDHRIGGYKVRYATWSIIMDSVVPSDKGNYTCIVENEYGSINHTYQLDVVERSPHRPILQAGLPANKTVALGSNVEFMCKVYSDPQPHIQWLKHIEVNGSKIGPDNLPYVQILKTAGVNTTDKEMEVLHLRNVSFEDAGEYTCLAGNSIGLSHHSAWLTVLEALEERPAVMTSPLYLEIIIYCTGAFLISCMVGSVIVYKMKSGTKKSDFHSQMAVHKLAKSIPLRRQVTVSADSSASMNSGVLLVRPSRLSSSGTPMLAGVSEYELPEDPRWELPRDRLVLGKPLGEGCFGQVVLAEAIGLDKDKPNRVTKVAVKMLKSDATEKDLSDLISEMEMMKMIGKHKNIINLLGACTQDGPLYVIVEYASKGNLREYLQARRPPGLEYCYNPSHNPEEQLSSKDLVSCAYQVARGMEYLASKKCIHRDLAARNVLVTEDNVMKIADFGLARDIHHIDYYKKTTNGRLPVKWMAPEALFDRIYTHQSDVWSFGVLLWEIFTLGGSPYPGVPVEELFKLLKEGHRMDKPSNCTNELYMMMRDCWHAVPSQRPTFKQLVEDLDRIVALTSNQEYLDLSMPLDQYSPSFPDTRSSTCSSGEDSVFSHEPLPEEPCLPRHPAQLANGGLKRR
Chain of GSK3α(h) (P49840 whole entry): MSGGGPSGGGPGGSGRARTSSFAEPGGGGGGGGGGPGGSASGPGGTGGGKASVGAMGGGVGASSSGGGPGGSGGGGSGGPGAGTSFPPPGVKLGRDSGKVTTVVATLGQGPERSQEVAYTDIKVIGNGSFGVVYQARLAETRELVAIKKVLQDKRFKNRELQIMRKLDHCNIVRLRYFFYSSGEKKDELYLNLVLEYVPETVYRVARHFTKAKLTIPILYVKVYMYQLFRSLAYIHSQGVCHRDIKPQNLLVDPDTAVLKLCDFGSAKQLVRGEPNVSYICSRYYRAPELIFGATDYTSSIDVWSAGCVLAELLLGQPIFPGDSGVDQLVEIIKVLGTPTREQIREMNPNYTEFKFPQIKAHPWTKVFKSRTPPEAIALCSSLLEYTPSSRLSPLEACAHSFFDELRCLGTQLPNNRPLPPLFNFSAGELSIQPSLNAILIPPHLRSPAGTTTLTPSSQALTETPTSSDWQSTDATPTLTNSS
Chain of Ret(h) (P07949 29-1114): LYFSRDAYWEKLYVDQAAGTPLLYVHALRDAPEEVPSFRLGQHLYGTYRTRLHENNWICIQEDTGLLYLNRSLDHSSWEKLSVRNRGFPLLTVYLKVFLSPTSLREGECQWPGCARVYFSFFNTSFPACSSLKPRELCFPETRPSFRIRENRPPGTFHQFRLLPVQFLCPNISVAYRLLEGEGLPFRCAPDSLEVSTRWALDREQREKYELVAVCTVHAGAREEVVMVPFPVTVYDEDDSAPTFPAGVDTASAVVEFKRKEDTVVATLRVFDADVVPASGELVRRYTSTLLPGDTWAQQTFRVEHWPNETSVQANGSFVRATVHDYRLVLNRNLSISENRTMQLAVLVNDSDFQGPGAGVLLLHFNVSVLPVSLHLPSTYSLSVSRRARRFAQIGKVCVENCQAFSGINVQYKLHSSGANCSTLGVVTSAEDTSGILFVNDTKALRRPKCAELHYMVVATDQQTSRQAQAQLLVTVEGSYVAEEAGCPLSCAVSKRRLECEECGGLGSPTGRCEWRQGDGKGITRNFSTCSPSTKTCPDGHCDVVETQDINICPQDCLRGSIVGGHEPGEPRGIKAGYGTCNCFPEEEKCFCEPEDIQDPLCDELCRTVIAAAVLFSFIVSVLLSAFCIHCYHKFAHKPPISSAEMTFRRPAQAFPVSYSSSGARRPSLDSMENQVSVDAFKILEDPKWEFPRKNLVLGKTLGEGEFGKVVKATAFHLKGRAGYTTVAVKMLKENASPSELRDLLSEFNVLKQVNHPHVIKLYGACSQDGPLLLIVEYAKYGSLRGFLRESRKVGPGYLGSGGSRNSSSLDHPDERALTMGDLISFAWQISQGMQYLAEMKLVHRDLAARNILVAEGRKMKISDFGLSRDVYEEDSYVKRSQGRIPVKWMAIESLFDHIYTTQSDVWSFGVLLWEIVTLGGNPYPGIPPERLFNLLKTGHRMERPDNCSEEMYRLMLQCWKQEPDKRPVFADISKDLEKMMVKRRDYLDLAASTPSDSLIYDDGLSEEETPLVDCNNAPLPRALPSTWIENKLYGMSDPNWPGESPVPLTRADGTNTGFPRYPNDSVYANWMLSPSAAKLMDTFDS

On to `CN1CCCC1CCNC(=O)c1cn2c3c(c(N4CCC(c5cnccn5)C4)c(F)cc3c1=O)Oc1cc3ccccc3cc1-2` (stereo not drawn) [Compound A-1], for which the remaining activity at 2.5 µM amounted to 122% on EGFR(h); 70% at SAPK2b(h); 84% on FGFR1(h); 101% on GSK3α(h); 123% at Ret(h); 36% at Flt3(D835Y)(h).
For `CC(=O)N1CCN(c2ccc3c(=O)c(C(=O)NCCN4CCCC4)c4n(C)c5ccccc5n4c3n2)CC1` [Compound B-1], the remaining activity at 2.5 µM at EGFR(h) came out at 117%; on SAPK2b(h) it was 94%; at FGFR1(h) it was 118%; on GSK3α(h), 89%; at Ret(h) it was 92%; on Flt3(D835Y)(h), 78%.
